Experimental findings from the OPERA property sets (Mansouri et al. 2018) are described below.

Where a SMILES comes first, the peptide text is derived from it.

On to `c1cc2ccc1CCc1ccc(cc1)CC2`, for which the logP amounted to 4.33. The result for `COc1ccc(-c2cc(=O)ss2)cc1` reads 3.19; that for `CC(CO)N(C)C` (stereo unspecified), 0.16; that for `C=C1C=CCC(C)=CCC1`, 4.17.

Regarding `CCCc1ccc(CNc2[nH]cnc3ncnc2-3)cc1`, the logP turned out to be 3.72.

Compound `Cc1cc2ncccc2c2nc(N)n(C)c12` displayed a logP of 1.98.

For the compound `Clc1ccc(N2CCN(CCCOn3nnc4ccccc43)CC2)cc1`, the lipophilicity (logP) turned out to be 4.15. With `COc1ccc(NC(=O)OCCN2CCCCC2)cc1`, the logP turned out to be 2.95.

As for `COc1ccc([N+](=O)[O-])c(C)c1`, the logP was 2.32.

In turn, `Cn1c(N)nc2c3cccnc3ccc21` registered a logP of 1.47. To `CC(C)CC(N)C(=O)NC(CO)C(=O)NC(CC(C)C)C(=O)O` (stereo not drawn) (H-Leu-Ser-Leu-OH; configuration not given here) belongs -2.35; to `COC(=O)C(C)NP(=O)(OCC1C=CC(n2cc(C)c(=O)[nH]c2=O)O1)Oc1ccccc1` (stereo unspecified), 1.04.

`Oc1cc(O)c2c(c1)OC(c1ccc(O)c(O)c1)C(OCCCc1ccccc1)C2` (stereo unspecified): the logP turned out to be 3.78.

`O=c1cc(-c2ccccc2Cl)oc2ccccc12` had a logP of 3.61.

Turning to `CCOP(=O)(OCC)C(C)(C)[N+]([O-])=Cc1ccc([N+](=O)[O-])cc1`, the logP worked out at 1.43.

The compound `Cc1oc2nc3oc(=O)c(C)c(C)c3cc2c1C` showed a log partition coefficient (logP) of 2.71.

`O=C1C=C(N2CCCC2)C(=O)N1c1ccc(Cl)cc1` had a log partition coefficient (logP) of 3. To `Cc1ccc(OCC(O)C(C)NC(C)C)c2c1CCC2` (stereo unspecified) belongs 3.19; to `CON(C)C(=O)Nc1cccc(CO)c1`, 0.62; to `O=C(Nc1ccccc1)NC1CC(C(=O)O)Nc2cc(Cl)cc(Cl)c21` (stereo unspecified), 3.28. The result for `COc1cccc2c1CCC(N)C2C` (stereo unspecified) reads 2.26; that for `CC(C)=CC1C(C(=O)OCc2cccc(C(=O)c3ccccc3)c2)C1(C)C` (stereo unspecified), 6.54; that for `Cc1ccc(OCC2CN=C(N)O2)cc1C` (stereo unspecified), 2.1. The compound `CCNCc1ccc(C)cc1` gave a logP of 2.38. `COC(=O)C(C)NP(=O)(OCC1C=CC(n2cc(C)c(=O)[nH]c2=O)O1)Oc1ccc(OC)cc1` (stereo unspecified) gave a log partition coefficient (logP) of 1.09. The result for `O=c1ccc2ccc3occc3c2[nH]1` reads 1.82; that for `Cc1coc2c(C)c3oc(=O)ccc3cc12`, 2.81.

Compound `CCN1CCCC1CNC(=O)c1c(OC)ccc(OC)c1O` (stereo unspecified) had a log partition coefficient (logP) of 2.82. For `CCN(CC)c1ccc(-n2c(C(F)(F)F)nn(C)c2=S)cn1`, the log partition coefficient (logP) is 3.14.

`COc1ccc(-c2ccsc2)cc1CNC1CCCNC1c1ccccc1` (stereo unspecified) came in with a logP of 4.8. The result for `CCOc1ccc(N)c(OCC)c1` reads 2.19; that for `COC(=O)C(C)(C)S(=O)(=O)c1ccc([N+](=O)[O-])cc1`, 1.38.

In turn, `COC(=O)c1cc2ccc3cccc4ccc(c1)c2c34` returned a logP of 4.85. `O=C1c2cc([N+](=O)[O-])ccc2OCN1CCO[N+](=O)[O-]` had a log partition coefficient (logP) of 1.66. The result for `NC(=O)C(Cc1c[nH]c2ccccc12)NC(=O)C(N)Cc1ccccc1` (stereo not drawn) (H-Phe-Trp-NH2; configuration not given here) reads 1.38.

As to `CN1CCN(C2=NC(=O)N(c3ccc(Cl)cc3)C2)CC1`, the logP is 2.2.

`CNc1ncnc2[nH]cnc12` gave a log partition coefficient (logP) of 0.43. To `CC(C)c1cc(=S)ss1` belongs 2.75. The result for `NS(=O)(=O)c1ncncc1-c1ccccc1` reads 0.5; that for `COc1cc2ncnc(Nc3ccc(F)cc3)c2cc1OC`, 2.87. In turn, `O=c1cc(-c2ccccc2Cl)oc2ccc(Cl)cc12` had a log partition coefficient (logP) of 4.09. Regarding `CCCCOc1ccc(NC(=O)OCCN2CCCCC2)cc1`, the logP was 4.69. With `CC(C)CCNc1ncnc2nc[nH]c12`, the lipophilicity (logP) stood at 2.51. The result for `O=C(NS(=O)(=O)c1cnccc1NC1CCCCCC1)N1CCCCCC1` reads 4.43; that for `O=C1c2ccccc2-c2cc([N+](=O)[O-])ccc21`, 3.06. `Cc1oc2cc3oc(=O)ccc3c(C)c2c1C`: the logP came to 3.27. `COc1cc2ccncc2cc1OC` had a logP of 1.68. To `Cc1ccc(CNc2ncnc3nc[nH]c23)cc1` belongs 2.66. The result for `CC(C)(C)SSc1ncc[nH]1` reads 2.56; that for `OC(CNCC(O)C1CCc2cc(F)ccc2O1)C1CCc2cc(F)ccc2O1` (stereo unspecified), 4.04; that for `O[C@@H](c1cc(C(F)(F)F)nc2c(C(F)(F)F)cccc12)[C@H]1CCCCN1`, 4.49. To `CCCNC(=O)c1cccc2nc(N)nc(N)c12` belongs 0.83. `COc1cccc(NC(=O)OCCN2CCCCC2)c1` displayed a logP of 3.32. To `CC(C(=O)O)c1ccc(N2CC3CCCCC3C2=O)cc1` (stereo unspecified) belongs 3.15; to `CC(C)CC(N)C(=O)NC(CC(C)C)C(=O)NCC(=O)NC(Cc1ccccc1)C(=O)O` (stereo unspecified) (H-LLGF-OH; configuration not given here), -0.42. To `CC(=O)OC1CCCC2(C)CCC(C(C)(C)OC(C)=O)CC12` (stereo unspecified) belongs 5.06. To `CCOc1ccc(CNc2[nH]cnc3ncnc2-3)cc1` belongs 2.6. As for `O=C(NC1CCCCC1)NS(=O)(=O)c1cnccc1NC1CCCCCC1`, the log partition coefficient (logP) was 4.59. `COC(=O)c1c(N2CCOCC2)c(-c2ccc(Cl)cc2)cn1C(=O)c1ccccc1` came in with a log partition coefficient (logP) of 5.5. `Clc1ccc(N2CCN(CCn3nc4ccccc4n3)CC2)cc1`: the logP came to 4.05. In turn, `CC(=O)c1ccc([N+](=O)[O-])cc1O` came in with a logP of 2.05. To `CCN(CC)C(=O)[C@]1(c2ccccc2)C[C@@H]1CN` belongs 2.03. To `CCC(C)C(N)C(=O)NC(C)C(=O)NCC(=O)NC(Cc1ccccc1)C(=O)O` (stereo unspecified) (H-IAGF-OH; configuration not given here) belongs -1.78; to `COC(=O)C1=C(C)NC(C)=C(C(=O)OC(C)C)C1c1cccc2c1OCO2` (stereo unspecified), 4.15; to `Cc1cccc(C)c1Cc1ccccn1`, 3.48. As to `CC(=O)c1cccc(CNc2[nH]cnc3ncnc2-3)c1`, the logP is 1.73. `CSCCC(NC(=O)C(N)CC(C)C)C(=O)O` (stereo not drawn) (H-Leu-Met-OH; configuration not given here) gave a logP of -1.87.

The compound `COC(=O)C(C)=CC1C(C(=O)OCc2cccc(OCc3ccccc3)c2)C1(C)C` (stereo unspecified) displayed a log partition coefficient (logP) of 6.06.

Turning to `Cc1nc([N+](=O)[O-])c(Cl)[nH]1`, the logP turned out to be 1.06.

The compound `O=[N+]([O-])c1ccc(CCBr)cc1` gave a logP of 2.9.

`CC(C)(C)N=O`: the lipophilicity (logP) amounted to 0.91. To `COc1cc(OC)nc(Sc2cccc(Oc3ccccc3)c2C(=O)O)n1` belongs 4.15; to `C=CCON=C(C)c1cccc(Oc2nc(OC)cc(OC)n2)c1C(=O)OC`, 3.13. `CC(C)(C)[N+]([O-])=Cc1cccc(O)c1` returned a logP of 1. The result for `O=C(c1ccccc1)c1ccnnc1` reads 1.09; that for `COC1Cc2c(O)cc(O)cc2OC1c1ccc(O)c(O)c1` (stereo unspecified), 1.

In turn, `CCNc1nc(N)nc(OC)n1` yielded a lipophilicity (logP) of 0.89. Regarding `COc1ccc(CCN(C)CCCC(C#N)(c2cc(OC)c(OC)c(OC)c2)C(C)C)cc1OC` (stereo unspecified), the log partition coefficient (logP) came to 3.71. To `CC(C)CC(NC(=O)C(Cc1c[nH]c2ccccc12)NC(=O)C(N)Cc1c[nH]c2ccccc12)C(=O)O` (stereo not drawn) (H-Trp-Trp-Leu-OH; configuration not given here) belongs 0.36. The result for `O=C(O)C1CSC(c2cc(O)ccc2O)=N1` (stereo unspecified) reads 0.9. As to `CCCC(=NOCC)C1=C(O)CC(C)(C2CC2)OC1=O` (stereo unspecified), the logP worked out at 3.28. The result for `Clc1cccc(N2CCN(CCn3nc4ccccc4n3)CC2)c1` reads 4.1; that for `N[C@@H](Cc1c[nH]c2ccccc12)C(=O)N[C@@H](Cc1c[nH]c2ccccc12)C(=O)O` (H-Trp-Trp-OH), -0.27; that for `NCC(=O)NC(Cc1ccccc1)C(=O)NC(Cc1ccc(O)cc1)C(=O)O` (stereo not drawn) (H-Gly-Phe-Tyr-OH; configuration not given here), -1.96. The result for `OCCNc1ncnc2c1ncn2C1OC(CO)C(O)C1O` (stereo unspecified) reads -1.13; that for `C[N+](C)([O-])CCc1ccccc1`, -0.28; that for `O=C(Cn1ncc([N+](=O)[O-])n1)NCCO`, -0.82. `CC(C)(O)C1CCC2(C)CCCC(O)(CO)C2C1` (stereo unspecified) came in with a logP of 1.54. `CCOC(=O)C(CCc1ccccc1)NC(C)C(=O)N1N=C(C(C)(C)C)SC1C(=O)O` (stereo unspecified) yielded a logP of 1.62. To `CC(C)CC(=O)OCC(=O)C1(O)C(C)CC2C3CCC4=CC(=O)C=CC4(C)C3(F)C(O)CC21C` (stereo unspecified) belongs 3.8; to `NC(=O)C1CN(CC(=O)Nc2c(Cl)cccc2Cl)CCN1CCCC(c1ccc(F)cc1)c1ccc(F)cc1` (stereo unspecified), 5.26; to `Cn1nc(C(F)(F)F)n(-c2ccccc2)c1=S`, 2.58.

`O=C(CCCN=C=S)c1cccnc1`: the logP is 1.79. The result for `COc1ccc(CCNCC(O)COc2ccc(-c3nc(C(C)(C)C)c[nH]3)cc2)cc1OC` (stereo unspecified) reads 4.09; that for `Cc1nc2ccccc2c(=O)n1CC(=O)NNc1ccccc1`, 1.34; that for `NC(=O)Nc1cccc(O)c1`, 0.36. The result for `CCCC(=O)OCOC(=O)N(C)N=Nc1ccc(C(=O)OCC)cc1` reads 4.51; that for `CCCCC(O)C(CCCCOc1ccc(F)cc1)n1cncn1` (stereo unspecified), 3.38; that for `CSCCC(N)C(=O)NC(Cc1c[nH]c2ccccc12)C(=O)O` (stereo unspecified), -1.5. In turn, `Cc1nc2c3c(c(C(=O)N4CCC4)cn2c1C)CCC(c1ccccc1)O3` (stereo unspecified) came in with a logP of 3.4. In the case of `O=C(O)c1ccccc1NC(=O)c1c(O)cccc1O`, the logP was 3.52. The result for `CCC(C)C(N)C(=O)NC(Cc1ccc(O)cc1)C(=O)NC(C(=O)O)C(C)C` (stereo not drawn) (H-Ile-Tyr-Val-OH; configuration not given here) reads -1.77; that for `CC(C)CC(N)C(=O)NC(CC(C)C)C(=O)NC(CC(C)C)C(=O)N1CCCC1C(=O)O` (stereo unspecified) (H-LLLP-OH; configuration not given here), -1.18; that for `c1ccc(Cn2cnc3ccccc32)cc1`, 2.91. The compound `O=C1N=C(N2CCOCC2)CN1Cc1cccc(Cl)c1` yielded a logP of 1.3. The compound `CCCCCOC1CCC(NC(=O)NC23CC4CC(CC(C4)C2)C3)CC1` (stereo unspecified) returned a logP of 5.
